Measured values taken from patent publication US20240343717A1, “MICROBIOCIDAL PYRAZOLE DERIVATIVES” (SYNGENTA CROP PROTECTION AG, priority 2021, published 2024).

Experiments:
Alternaria solani = Alternaria solani / tomato / leaf disc (early blight); assay type: in vivo; conditions: foliar, tomato leaf disks, sprayed 2 days before inoculation, compared to untreated control
Experimental: Example B1: Alternaria solani/Tomato/Leaf Disc (Early Blight) Tomato leaf disks cv. Baby are placed on agar in multiwell plates (24-well format) and sprayed with the formulated test compound diluted in water. The leaf disks are inoculated with a spore suspension of the fungus 2 days after application. The inoculated leaf disks are incubated at 23° C./21° C.

[1] = test system: Glomerella lagenarium (Colletotrichum lagenarium); test: Glomerella lagenarium (Colletotrichum lagenarium) / liquid culture (anthracnose); assay type: cell-based; conditions: Colletotrichum orbiculare, growth inhibition photometrically 3-4 days after application, read-out: control of Glomerella lagenarium
Experimental: (§1) Example B3: Glomerella lagenarium (Colletotrichum lagenarium)/Liquid Culture (Anthracnose) Conidia of the fungus from cryogenic storage are directly mixed into nutrient broth (PDB potato dextrose broth). After placing a (DMSO) solution of test compound into a microtiter plate (96-well format), the nutrient broth containing the fungal spores is added. The test plates are incubated at 24° C. and the inhibition of growth is measured photometrically 3-4 days after application.

[2] = test system: Blumeria graminis f. sp. tritici (Erysiphe graminis f. sp. tritici); test: Blumeria graminis f. sp. tritici / wheat / leaf disc preventative (powdery mildew on wheat); assay type: in vivo; conditions: foliar, wheat leaf segments, inoculated 1 day after application
Experimental: Example B4: Blumeria graminis f. Sp. Tritici (Erysiphe graminis f. Sp. Tritici)/Wheat/Leaf Disc Preventative (Powdery Mildew on Wheat) Wheat leaf segments cv. Kanzler are placed on agar in a multiwell plate (24-well format) and sprayed with the formulated test compound diluted in water. The leaf disks are inoculated by shaking powdery mildew infected plants above the test plates 1 day after application. The inoculated leaf disks are incubated at 20° C. and 60% rh under a light regime of 24 h darkness followed by 12 h light/12 h darkness in a climate chamber and the activity of a compound is assessed as percent disease control compared to untreated when an appropriate level of disease damage appears on untreated check leaf segments (6-8 days after application).

[3] = test system: Botryotinia fuckeliana (Botrytis cinerea); test: Botryotinia fuckeliana (Botrytis cinerea) / liquid culture (gray mould); assay type: cell-based; conditions: growth inhibition photometrically 3-4 days after application, read-out: control of Botryotinia fuckeliana
Experimental: as §1, with “B2: Botryotinia fuckeliana (Botrytis cinerea)/Liquid” for “B3: Glomerella lagenarium (Colletotrichum lagenarium)/Liquid”, “(Gray Mould)” for “(Anthracnose)”, “(Vogels” for “(PDB potato dextrose”, “determined” for “measured”

[4] = test system: Phaeosphaeria nodorum (Septoria nodorum); test: Phaeosphaeria nodorum (Septoria nodorum) / wheat / leaf disc preventative (glume blotch); assay type: in vivo; conditions: Parastagonospora nodorum, foliar, wheat leaf segments, inoculated 2 days after application
Experimental: Example B8: Phaeosphaeria nodorum (Septoria nodorum)/Wheat/Leaf Disc Preventative (Glume Blotch) Wheat leaf segments cv. Kanzler are placed on agar in a multiwell plate (24-well format) and sprayed with the formulated test compound diluted in water. The leaf disks are inoculated with a spore suspension of the fungus 2 days after application. The inoculated test leaf disks are incubated at 20° C. and 75% rh under a light regime of 12 h light/12 h darkness in a climate cabinet and the activity of a compound is assessed as percent disease control compared to untreated when an appropriate level of disease damage appears in untreated check leaf disks (5-7 days after application).

[5] = test system: Monographella nivalis (Microdochium nivale); test: Monographella nivalis (Microdochium nivale) / liquid culture (foot rot cereals); assay type: cell-based; conditions: growth inhibition photometrically 4-5 days after application, read-out: control of Monographella nivalis
Experimental: as §1, with “B9: Monographella nivalis (Microdochium nivale)/Liquid” for “B3: Glomerella lagenarium (Colletotrichum lagenarium)/Liquid”, “(Foot Rot Cereals)” for “(Anthracnose)”, “determined” for “measured”, “4-5” for “3-4”

Pyrenophora teres = Pyrenophora teres / barley / leaf disc preventative (net blotch); assay type: in vivo; conditions: foliar, barley leaf segments, inoculated 2 days after application
Experimental: Example B14: Pyrenophora teres/Barley/Leaf Disc Preventative (Net Blotch) Barley leaf segments cv. Hasso are placed on agar in a multiwell plate (24-well format) and sprayed with the formulated test compound diluted in water. The leaf segments are inoculated with a spore suspension of the fungus 2 days after application. The inoculated leaf segments are incubated at 20° C. and 65% rh under a light regime of 12 h light/12 h darkness in a climate cabinet and the activity of a compound is assessed as disease control compared to untreated when an appropriate level of disease damage appears in untreated check leaf segments (5-7 days after application).

[6] = test system: Mycosphaerella graminicola (Septoria tritici); test: Mycosphaerella graminicola (Septoria tritici) / liquid culture (Septoria blotch); assay type: cell-based; conditions: Zymoseptoria tritici, growth inhibition photometrically 4-5 days after application, read-out: control of Mycosphaerella graminicola
Experimental: as §1, with “B16: Mycosphaerella graminicola (Septoria tritici)/Liquid” for “B3: Glomerella lagenarium (Colletotrichum lagenarium)/Liquid”, “(Septoria Blotch)” for “(Anthracnose)”, “determined” for “measured”, “4-5” for “3-4”

[7] = test system: Mycosphaerella arachidis (Cercospora arachidicola); test: Mycosphaerella arachidis (Cercospora arachidicola) / liquid culture (early leaf spot); assay type: cell-based; conditions: growth inhibition photometrically 4-5 days after application, read-out: control of Mycosphaerella arachidis
Experimental: as §1, with “B10: Mycosphaerella arachidis (Cercospora arachidicola)/Liquid” for “B3: Glomerella lagenarium (Colletotrichum lagenarium)/Liquid”, “(Early Leaf Spot)” for “(Anthracnose)”, “determined” for “measured”, “4-5” for “3-4”

Fusarium culmorum = test: microbe, parasite or virus in culture; assay type: cell-based; conditions: read-out: control of Fusarium culmorum

Cn1cc(C(C)(CNC(=O)c2cc(-c3ccc(F)cc3F)no2)c2cccc(Cl)n2)cn1 (stereo not drawn) [Compound P-4, N-[2-(6-chloro-2-pyridyl)-2-(1-methylpyrazol-4-yl)propyl]-3-(2,4-difluorophenyl)isoxazole-5-carboxamide]
≥ 80%: pest or weed control at 200 ppm (Alternaria solani) | inhibition of growth at 20 ppm [1] | pest or weed control at 200 ppm [2]

Cn1cc(C(C)(CNC(=O)c2cc(-c3ccc(F)cc3F)on2)c2ccccn2)cn1 (stereo not drawn) [Compound P-11, 5-(2,4-difluorophenyl)-N-[2-(1-methylpyrazol-4-yl)-2-(2-pyridyl)propyl] isoxazole-3-carboxamide]
≥ 80%: pest or weed control at 200 ppm (Alternaria solani) | inhibition of growth at 20 ppm [3] | inhibition of growth at 20 ppm [1] | pest or weed control at 200 ppm [2] | pest or weed control at 200 ppm [4] | inhibition of growth at 20 ppm [5] | pest or weed control at 200 ppm (Pyrenophora teres) | inhibition of growth at 20 ppm [6]

Cn1cc(C(C)(CNC(=O)c2cc(-c3ccc(F)cc3F)on2)c2cncc(Cl)n2)cn1 (stereo not drawn) [Compound P-21, N-[2-(6-chloropyrazin-2-yl)-2-(1-methylpyrazol-4-yl)propyl]-5-(2,4-difluorophenyl) isoxazole-3-carboxamide]
≥ 80%: inhibition of growth at 20 ppm [3] | pest or weed control at 200 ppm [2] | pest or weed control at 200 ppm (Pyrenophora teres) | inhibition of growth at 20 ppm [6]

CO/N=C(/C)c1ccc(C(C)(CNC(=O)c2cc(-c3ccc(F)cc3F)on2)c2cnn(C)c2)nc1 (stereo not drawn) [Compound P-61, 5-(2,4-difluorophenyl)-N-[2-[5-[(Z)-N-methoxy-C-methyl-carbonimidoyl]-2-pyridyl]-2-(1-methylpyrazol-4-yl)propyl]isoxazole-3-carboxamide]
≥ 80%: pest or weed control at 200 ppm (Alternaria solani) | inhibition of growth at 20 ppm [1] | pest or weed control at 200 ppm [4] | inhibition of growth at 20 ppm [5] | inhibition of growth at 20 ppm [7] | pest or weed control at 200 ppm (Pyrenophora teres) | inhibition of growth at 20 ppm [6]

CCCCc1nnc(C(=O)NCC(C)(c2cnn(C)c2)c2cccc(Cl)n2)s1 (stereo not drawn) [Compound P-108, 5-butyl-N-[2-(6-chloro-2-pyridyl)-2-(1-methylpyrazol-4-yl)propyl]-1,3,4-thiadiazole-2-carboxamide]
≥ 80%: inhibition of growth at 20 ppm [3] | inhibition of growth at 20 ppm [1] | inhibition of growth at 20 ppm (Fusarium culmorum) | inhibition of growth at 20 ppm [5] | inhibition of growth at 20 ppm [7] | inhibition of growth at 20 ppm [6]

CC(C)C(CNC(=O)c1cc(-c2ccc(F)cc2F)on1)(c1cnn(C)c1)c1cccc(Cl)n1 (stereo not drawn) [Compound P-32, N-[2-(6-chloro-2-pyridyl)-3-methyl-2-(1-methylpyrazol-4-yl)butyl]-5-(2,4-difluorophenyl) isoxazole-3-carboxamide]
≥ 80%: pest or weed control at 200 ppm (Alternaria solani) | inhibition of growth at 20 ppm [3] | pest or weed control at 200 ppm [4] | inhibition of growth at 20 ppm [5] | pest or weed control at 200 ppm (Pyrenophora teres) | inhibition of growth at 20 ppm [6]

CC(=O)c1cccc(C(C)(CNC(=O)c2cc(-c3ccc(F)cc3F)on2)c2cnn(C)c2)n1 (stereo not drawn) [Compound P-48, N-[2-(6-acetyl-2-pyridyl)-2-(1-methylpyrazol-4-yl)propyl]-5-(2,4-difluorophenyl) isoxazole-3-carboxamide]
≥ 80%: pest or weed control at 200 ppm (Alternaria solani) | inhibition of growth at 20 ppm [3] | inhibition of growth at 20 ppm [1] | pest or weed control at 200 ppm [4] | inhibition of growth at 20 ppm [5] | inhibition of growth at 20 ppm [7] | pest or weed control at 200 ppm (Pyrenophora teres) | inhibition of growth at 20 ppm [6]

CN(C)C(=O)c1cccc(C(C)(CNC(=O)c2cc(-c3ccc(F)cc3F)on2)c2cnn(C)c2)n1 (stereo not drawn) [Compound P-44, 5-(2,4-difluorophenyl)-N-[2-[6-(dimethylcarbamoyl)-2-pyridyl]-2-(1-methylpyrazol-4-yl)propyl]isoxazole-3-carboxamide]
≥ 80%: pest or weed control at 200 ppm (Alternaria solani) | pest or weed control at 200 ppm [4] | pest or weed control at 200 ppm (Pyrenophora teres)
